Experimental findings from publication PMC11513618 (RSC Advances, 2024) are described below.

The assay deals with human P-selectin (Fc chimera) binding to PSGL-1 on U-937 monocytes (Homo sapiens, UniProt P16109). Nature of the assay: Flow cytometry: inhibition of P-selectin-Fc chimera binding to U-937 monocytes. Format: cell-based.

The structures appear in SMILES notation. Square brackets hold non-standard residues; d marks the D form. Peptide text beside a SMILES is read from it. * marks the point of attachment. X1 = CC(=O)N[C@@H]1[C@@H](O[C@@H]2O[C@H](CO)[C@H](O)[C@H](O)[C@H]2O)[C@@H](O)[C@@H](CO[C@@H]2O[C@H](CO)[C@@H](O[C@@H]3O[C@H](CO)[C@H](O)[C@H](O[C@]4(C(=O)O)C[C@H](O)[C@@H](NC(C)=O)[C@H]([C@H](O)[C@H](O)CO)O4)[C@H]3O)[C@H](O[C@@H]3O[C@@H](C)[C@@H](O)[C@@H](O)[C@@H]3O)[C@H]2NC(C)=O)O[C@@H]1*; Phe(4-CH2SO3H) = N[C@@H](Cc1ccc(CS(=O)(=O)O)cc1)C(=O)O

Take `CC(=O)N[C@H]1[C@H](OC[C@H]2O[C@H](O[C@H](C)[C@H](NC(=O)[C@H](CCC(=O)O)NC(=O)[C@@H]3CCCN3C(=O)[C@H](CC(C)C)NC(=O)[C@H](Cc3ccccc3)NC(=O)[C@H](CC(=O)O)NC(=O)[C@H](Cc3ccc(CS(=O)(=O)O)cc3)NC(=O)[C@H](CC(=O)O)NC(=O)[C@H](CC(C)C)NC(=O)[C@H](Cc3ccc(CS(=O)(=O)O)cc3)NC(=O)[C@H](CCC(=O)O)NC(=O)[C@H](Cc3ccc(CS(=O)(=O)O)cc3)NC(=O)[C@H](CCC(=O)O)NC(=O)[C@H](CCCCN)NC(C)=O)C(=O)N[C@@H](CCC(=O)O)C(=O)N3CCC[C@H]3C(=O)N[C@@H](CC(C)C)C(=O)O)[C@H](NC(C)=O)[C@@H](O[C@@H]3O[C@H](CO)[C@H](O)[C@H](O)[C@H]3O)[C@H]2O)O[C@H](CO)[C@@H](O[C@@H]2O[C@H](CO)[C@H](O)[C@H](O[C@]3(C(=O)O)C[C@H](O)[C@@H](NC(C)=O)[C@H]([C@H](O)[C@H](O)CO)O3)[C@H]2O)[C@@H]1O[C@@H]1O[C@@H](C)[C@@H](O)[C@@H](O)[C@@H]1O` [GSnP-6] (Ac-KE[Phe(4-CH2SO3H)]E[Phe(4-CH2SO3H)]LD[Phe(4-CH2SO3H)]DFLPET(X1)EPL-OH; C-terminus assumed): the IC50 (commonly the concentration that gives 50% inhibition) amounted to 11.1 µM.
